pEC50: −log10 of the molar value.
Legend:
Assay type in all cases: binding
[1] = target: TEAD4 TAZ (amino acids 13-57) (Homo sapiens, UniProt Q15561); test: TEAD4-TAZ HTRF (TR-FRET) protein-protein interaction assay; conditions: for TEAD4 TAZ HTRF combined: Max % Inhibition: TEAD4, TAZ peptide; for pEC50: TEAD4-TAZ HTRF, TR-FRET 665 nm/615 nm, read-out: TEAD4 TAZ HTRF combined: EC50
Description: (§1) Purified His-tagged TEAD protein (YAP Binding Domain, amino acids 217-447) is pre-incubated with Europium labelled anti-His antibody tracer (Perkin Elmer Cat #AD0110). Small molecule Inhibitors are then incubated with the TEAD-Eu protein complex for 30 minutes to allow for binding to TEAD protein. Biotinylated YAP peptide for TEAD-YAP assays (AA's 50-100) or biotinylated TAZ peptide for TEAD-TAZ assays (AA's 13-57) that has been pre-incubated with streptavidin-xl665 acceptor (CIS-Bio Cat #610SAXAC) or is added to the compound-TEAD mix. The TEAD-YAP-inhibitor mixture is then incubated for 60 minutes at room temperature. All reactions are carried out in a polystyrene plate. After 60 minutes, the plate is read on a plate reader using TR-FRET mode with wavelengths of 665 nm/615 nm. If YAP or TAZ binds to TEAD as expected, a TR-FRET signal results from the proximity of YAP or TAZ and TEAD after binding. If an inhibitor such as peptide 17 (Selleckchem Cat #58164) interferes with YAP-TEAD or TAZ-TEAD binding, the disruption of the YAP or TAZ:TEAD interaction results in a decrease in TR-FRET signal. The potency of compounds as YAP:TEAD or TAZ:TEAD protein-protein interaction (PPi) inhibitors is determined by an IC50 or EC50 value generated using a non-linear four parameter curve fit.

TEAD4 YAP50-100 = TEAD4 YAP50-100 (Homo sapiens, UniProt Q15561); test: TEAD4-YAP HTRF (TR-FRET) protein-protein interaction assay; conditions: TEAD4, YAP peptide 50-100, HTRF; for pEC50: read-out: TEAD4 YAP50-100 HTRF combined: EC50
Description: as §1

TEAD2 YAP50-100 = TEAD2 YAP50-100 (Homo sapiens, UniProt Q15562); test: TEAD2-YAP HTRF (TR-FRET) protein-protein interaction assay; conditions: TEAD2, YAP peptide 50-100, HTRF; for pEC50: read-out: TEAD2 YAP50-100 HTRF combined: EC50
Description: as §1

[2] = target: TEAD1 TAZ (amino acids 13-57) (Homo sapiens, UniProt P28347); test: TEAD1-TAZ HTRF (TR-FRET) protein-protein interaction assay; conditions: for TEAD1 TAZ HTRF combined: Max % Inhibition: TEAD1, TAZ peptide; for pEC50: TEAD1-TAZ HTRF, TR-FRET 665 nm/615 nm, read-out: TEAD1 TAZ HTRF combined: EC50
Description: as §1

[3] = target: TEAD2 TAZ (amino acids 13-57) (Homo sapiens, UniProt Q15562); test: TEAD2-TAZ HTRF (TR-FRET) protein-protein interaction assay; conditions: for TEAD2 TAZ HTRF combined: Max % Inhibition: TEAD2, TAZ peptide; for pEC50: TEAD2-TAZ HTRF, TR-FRET 665 nm/615 nm, read-out: TEAD2 TAZ HTRF combined: EC50
Description: as §1

[4] = target: TEAD3 TAZ (amino acids 13-57) (Homo sapiens, UniProt Q99594); test: TEAD3-TAZ HTRF (TR-FRET) protein-protein interaction assay; conditions: for TEAD3 TAZ HTRF combined: Max % Inhibition: TEAD3, TAZ peptide; for pEC50: TEAD3-TAZ HTRF, TR-FRET 665 nm/615 nm, read-out: TEAD3 TAZ HTRF combined: EC50
Description: as §1

TEAD3 YAP50-100 = TEAD3 YAP50-100 (Homo sapiens, UniProt Q99594); test: TEAD3-YAP HTRF (TR-FRET) protein-protein interaction assay; conditions: TEAD3, YAP peptide 50-100, HTRF; for pEC50: read-out: TEAD3 YAP50-100 HTRF combined: EC50
Description: as §1

TEAD1 YAP50-100 = TEAD1 YAP50-100 (Homo sapiens, UniProt P28347); test: TEAD1-YAP HTRF (TR-FRET) protein-protein interaction assay; conditions: TEAD1, YAP peptide 50-100, HTRF; for pEC50: read-out: TEAD1 YAP50-100 HTRF combined: EC50
Description: as §1

TEAD4 YAP50-100, sequence (Q15561 217-434 limits assumed): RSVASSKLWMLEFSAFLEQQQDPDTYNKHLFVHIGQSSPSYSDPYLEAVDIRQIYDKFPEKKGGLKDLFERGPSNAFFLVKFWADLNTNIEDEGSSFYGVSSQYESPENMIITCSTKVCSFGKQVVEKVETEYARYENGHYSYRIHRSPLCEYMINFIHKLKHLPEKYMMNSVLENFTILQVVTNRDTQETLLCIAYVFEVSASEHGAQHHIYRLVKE
TEAD4 TAZ (amino acids 13-57), sequence (Q15561 217-434 limits assumed): as above
TEAD2 TAZ (amino acids 13-57), sequence (Q15562 217-447): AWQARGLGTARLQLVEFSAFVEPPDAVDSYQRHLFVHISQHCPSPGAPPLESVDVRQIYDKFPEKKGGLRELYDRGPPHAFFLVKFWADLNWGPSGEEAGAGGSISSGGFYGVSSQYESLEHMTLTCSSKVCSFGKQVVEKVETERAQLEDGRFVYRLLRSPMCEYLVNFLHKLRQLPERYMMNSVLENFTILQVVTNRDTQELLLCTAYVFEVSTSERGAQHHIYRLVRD
TEAD2 YAP50-100, sequence (Q15562 217-447): as above
TEAD1 TAZ (amino acids 13-57), sequence (P28347 167-426 limits assumed): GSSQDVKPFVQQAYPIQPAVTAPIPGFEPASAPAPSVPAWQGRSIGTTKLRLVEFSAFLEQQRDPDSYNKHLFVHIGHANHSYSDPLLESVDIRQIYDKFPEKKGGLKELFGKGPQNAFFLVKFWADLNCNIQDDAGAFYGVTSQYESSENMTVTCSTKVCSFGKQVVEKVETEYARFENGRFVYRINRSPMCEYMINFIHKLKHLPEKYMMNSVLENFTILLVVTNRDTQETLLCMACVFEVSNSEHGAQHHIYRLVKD
TEAD1 YAP50-100, sequence (P28347 167-426 limits assumed): as above
TEAD3 TAZ (amino acids 13-57), sequence (Q99594 173-435 limits assumed): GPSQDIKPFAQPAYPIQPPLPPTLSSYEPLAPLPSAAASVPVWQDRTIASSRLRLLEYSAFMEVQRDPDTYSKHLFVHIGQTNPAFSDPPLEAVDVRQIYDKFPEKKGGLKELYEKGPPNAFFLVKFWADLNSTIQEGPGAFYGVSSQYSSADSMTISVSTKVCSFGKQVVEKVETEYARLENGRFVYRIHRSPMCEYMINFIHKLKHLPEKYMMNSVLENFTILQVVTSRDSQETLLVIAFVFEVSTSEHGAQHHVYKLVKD
TEAD3 YAP50-100, sequence (Q99594 173-435 limits assumed): as above

Row | Structure (SMILES) | TEAD4 TAZ HTRF combined: Max % Inhibition [1] | pEC50 [1] | TEAD4 YAP50-100 HTRF combined: Max % Inhibition (TEAD4 YAP50-100) | pEC50 (TEAD4 YAP50-100) | TEAD2 YAP50-100 HTRF combined: Max % Inhibition (TEAD2 YAP50-100) | pEC50 (TEAD2 YAP50-100) | TEAD1 TAZ HTRF combined: Max % Inhibition [2] | pEC50 [2] | TEAD2 TAZ HTRF combined: Max % Inhibition [3] | pEC50 [3] | TEAD3 TAZ HTRF combined: Max % Inhibition [4] | pEC50 [4] | TEAD3 YAP50-100 HTRF combined: Max % Inhibition (TEAD3 YAP50-100) | pEC50 (TEAD3 YAP50-100) | TEAD1 YAP50-100 HTRF combined: Max % Inhibition (TEAD1 YAP50-100) | pEC50 (TEAD1 YAP50-100)
1 | CC(CO)c1nn2c(=O)cc(-c3ccc(C4CCCCC4)cc3)[nH]c2c1C(=O)N1CC[C@@H](C#N)C1 (single isomer, unassigned) [Final product obtained using Enantiomer A from Step 4, Example 54] | 44.5% | 6.32 | 47.5% | 6.26 | 65.0% | 7.40 | 41.5% | 6.62 | 71.0% | 7.40 | 73.0% | 6.59 | 71.5% | 6.60 | 59.0% | 6.89
2 | Cc1nccnc1-c1nn2c(=O)cc(-c3ccc(OC(c4ccccc4)C(F)(F)F)cc3)[nH]c2c1C(=O)N1C[C@H](CF)[C@@H]1C (single isomer, unassigned) [Final product obtained using Enantiomer B from Step 1, Example 56] | 53.0% | 5.68 | 59.5% | 5.55 | 83.5% | 7.10 | 60.5% | 6.44 | 77.0% | 7.15 | 68.0% | 6.03 | 71.0% | 6.08 | 66.0% | 6.37
3 | C[C@H]1[C@@H](CF)CN1C(=O)c1c(-c2cnccn2)nn2c(=O)cc(-c3ccc(C4CCCCC4)cc3)[nH]c12 (single isomer, unassigned) [Isomer A, Example 39] | 58.0% | 7.22 | 51.5% | 7.22 | 76.0% | 8.00 | 69.5% | 7.15 | 77.0% | 8.00 | 69.5% | 6.89 | 71.0% | 6.92 | 76.0% | 7.22
4 | C[C@@H]1[C@H](CF)CN1C(=O)c1c(-c2ncccn2)nn2c(=O)cc(-c3ccc(C4CCCCC4)cc3)[nH]c12 (single isomer, unassigned) [Isomer A, Example 40] | 53.0% | 7.52 | 53.5% | 7.52 | 76.0% | 8.00 | 64.5% | 7.10 | 70.5% | 8.00 | 63.0% | 6.80 | 68.5% | 6.85 | 75.0% | 7.22
5 | Cc1nccnc1-c1nn2c(=O)cc(-c3ccc(C4CCCCC4)cc3)[nH]c2c1C(=O)N1C[C@@H](CF)[C@H]1C (single isomer, unassigned) [Isomer A, Example 41] | 51.5% | 5.31 | 51.0% | 5.26 | 26.0% | 7.22 | 53.5% | 6.74 | 35.0% | 7.30 | 70.0% | 6.16 | 74.0% | 6.28 | 69.0% | 6.82
6 | Cc1nccnc1-c1nn2c(=O)cc(-c3ccc(CC4CCCC4)cc3)[nH]c2c1C(=O)N1C[C@@H](CF)[C@H]1C (single isomer, unassigned) [Isomer A, Example 42] | 20.0% | 5.96 | 48.5% | 5.31 | 45.0% | 7.70 | 49.0% | 7.10 | 57.0% | 7.70 | 66.0% | 6.47 | 69.5% | 6.49 | 64.0% | 7.10
7 | C[C@H]1[C@@H](CF)CN1C(=O)c1c(-c2ncccn2)nn2c(=O)cc(-c3ccc(CC4CCCC4)cc3)[nH]c12 (single isomer, unassigned) [Isomer A, Example 43] | 52.0% | 8.00 | 52.0% | 8.00 | 71.0% | 8.00 | 54.5% | 7.52 | 63.0% | 8.00 | 52.0% | 7.22 | 58.5% | 7.22 | 64.0% | 7.52
8 | C[C@H]1[C@@H](CF)CN1C(=O)c1c(-c2cnccn2)nn2c(=O)cc(-c3ccc(CC4CCCC4)cc3)[nH]c12 (single isomer, unassigned) [Isomer A, Example 44, Cis-5-(4-(cyclopentylmethyl)phenyl)-3-(3-(fluoromethyl)-2-methylazetidine-1-carbonyl)-2-(pyrazin-2-yl)pyrazolo[1,5-a]pyrimidin-7(4H)-one] | 42.0% | 5.02 | 40.0% | 5.03 | 52.0% | 7.40 | 52.0% | 7.15 | 56.5% | 7.40 | 64.0% | 5.92 | 65.5% | 5.98 | 64.0% | 7.22
9 | C[C@@H]1[C@H](CF)CN1C(=O)c1c(-c2cnccn2)nn2c(=O)cc(-c3ccc(C4CCCCC4)cc3)[nH]c12 (single isomer, unassigned) [Isomer B, Example 39] | 49.5% | 5.21 | 46.0% | 5.19 | 17.5% | 6.77 | 55.0% | 6.77 | 37.0% | 6.72 | 68.0% | 5.60 | 67.0% | 5.61 | 62.0% | 6.77

Reference: patent publication US12692269B2, “Therapeutic compounds” (Genentech, Inc., priority 2019, dated 2026)
